Measurements reported in patent US11542225B2, “Lipids for use in lipid nanoparticle formulations” (ACUITAS THERAPEUTICS, INC., priority 2017, dated 2023).
Where two headings read alike, the source gives them in different places.

Assays:
[1] = Determination of pKa of formulated lipids (TNS fluorescence assay in lipid nanoparticles); format: physicochemical
From the text: As described elsewhere, the pKa of formulated lipids was correlated with the effectiveness of LNPs for delivery of nucleic acids (see Jayaraman et al, Angewandte Chemie, International Edition (2012), 51(34), 8529-8533; Semple et al, Nature Biotechnology 28, 172-176 (2010)). In some embodiments, the preferred range of pKa was ˜5 to ˜7. […] Lipid nanoparticles comprising compound of structure (I)/DSPC/cholesterol/PEG-lipid (50/10/38.5/1.5 or 47.5:10:40.8:1.7 mol %) in PBS at a concentration of 0.4 mM total lipid were prepared using the in-line process as described in Example 1. TNS was prepared as a 100 μM stock solution in distilled water. Vesicles were diluted to 24 μM lipid in 2 mL of buffered solutions containing 10 mM HEPES, 10 mM MES, 10 mM ammonium acetate, and 130 mM NaCl, where the pH ranged from 2.5 to 11. An aliquot of the TNS solution was added to give a final concentration of 1 μM and following vortex mixing fluorescence intensity was measured at room temperature in a SLM Aminco Series 2 Luminescence Spectrophotometer using excitation and emission wavelengths of 321 nm and 445 nm. A sigmoidal best fit analysis was applied to the fluorescence data and the pKa was measured as the pH giving rise to half-maximal fluorescence intensity.

[2] = tested on: luciferase expression in the liver; test: Luciferase mRNA in vivo evaluation using lipid nanoparticle compositions; set-up: species or system mice; details: novel lipids; values marked * in the 1.0 mg/kg column: dosed at 0.5 mg/kg; tail vein injection, 4 hours after administration
[3] = tested on: luciferase expression in the liver; test: as above; set-up: species or system mice; details: for Liver Luc @ 0.3 mg/kg (ng luc/g liver) / Liver Luc @ 1.0 mg/kg (ng luc/g liver): novel lipids, tail vein injection, 4 hours after administration; for Liver Luc @ 0.3 mg/kg (ng luc/g liver): 0.3 mg mRNA/kg; for Liver Luc @ 1.0 mg/kg (ng luc/g liver): 1.0 mg mRNA/kg
Protocol: A lipid of structure (I), DSPC, cholesterol and PEG-lipid were solubilized in ethanol at a molar ratio of 50:10:38.5:1.5 or 47.5:10:40.8:1.7. Lipid nanoparticles (LNP) were prepared at a total lipid to mRNA weight ratio of approximately 10:1 to 30:1. Briefly, the mRNA was diluted to 0.2 mg/mL in 10 to 50 mM citrate buffer, pH 4. Syringe pumps were used to mix the ethanolic lipid solution with the mRNA aqueous solution at a ratio of about 1:5 to 1:3 (vol/vol) with total flow rates above 15 mL/min. The ethanol was then removed and the external buffer replaced with PBS by dialysis. Finally, the lipid nanoparticles were filtered through a 0.2 μm pore sterile filter.
Studies were performed in 6-8 week old female C57BL/6 mice (Charles River) 8-10 week old CD-1 (Harlan) mice (Charles River) according to guidelines established by an institutional animal cwere committee (ACC) and the Canadian Council on Animal Cwere (CCAC). Varying doses of mRNA-lipid nanoparticle were systemically administered by tail vein injection and animals euthanized at a specific time point (e.g., 4 hours) post-administration. Liver and spleen were collected in pre-weighed tubes, weights determined, immediately snap frozen in liquid nitrogen and stored at −80° C. until processing for analysis.
For liver, approximately 50 mg was dissected for analyses in a 2 mL FastPrep tubes (MP Biomedicals, Solon Ohio). ¼″ ceramic sphere (MP Biomedicals) was added to each tube and 500 μL of Glo Lysis Buffer—GLB (Promega, Madison Wis.) equilibrated to room temperature was added to liver tissue. Liver tissues were homogenized with the FastPrep24 instrument (MP Biomedicals) at 2×6.0 m/s for 15 seconds. Homogenate was incubated at room temperature for 5 minutes prior to a 1:4 dilution in GLB and assessed using SteadyGlo Luciferase assay system (Promega). Specifically, 50 μL of diluted twassue homogenate was reacted with 50 μL of SteadyGlo substrate, shaken for 10 seconds followed by 5 minute incubation and then quantitated using a CentroXS^3 LB 960 luminometer (Berthold Technologies, Germany). The amount of protein assayed was determined by using the BCA protein assay kit (Pierce, Rockford, Ill.). Relative luminescence units (RLU) were then normalized to total μg protein assayed. To convert RLU to ng luciferase a standard curve was generated with QuantiLum Recombinant Luciferase (Promega).
The FLuc mRNA (L-6107) from Trilink Biotechnologies will express a luciferase protein, originally isolated from the firefly, Photinus pyralwas. FLuc was commonly used in mammalian cell culture to measure both gene expression and cell viability. It emits bioluminescence in the presence of the substrate, luciferin. This capped and polyadenylated mRNA was fully substituted with 5-methylcytidine and pseudouridine.
Compounds of structure (I) were formulated using the following molar ratio: 47.5% cationic lipid/10% dwastearoylphosphatidylcholine (DSPC)/40.8% Cholesterol/1.7% PEG lipid (“PEG-DMA” 2-[2-(ω-methoxy(polyethyleneglycol2000)ethoxy]-N,N-ditetradecylacetamide). Relative activity was determined by measuring luciferase expression in the liver 4 hours following administration via tail vein injection as described in Example 1. The activity was compared at a dose of 0.3 and 1.0 mg mRNA/kg and expressed as ng luciferase/g liver measured 4 hours after administration, as described in Example 1.
The cationic lipids shown in Table 2 have previously been tested with nucleic acids. For comparative purposes, these lipids were also used to formulate lipid nanoparticles containing the FLuc mRNA (L-6107) using an in line mixing method, as described in Example 1 and in PCT/US10/22614, which is hereby incorporated by reference in its entirety. […]

[4] = Table 3, lipid formulated in LNP, TNS assay

Row | pKa [1, 4] | pKa [1] | Compound | Liver Luc (ng luc/g liver), dosed at 0.5 mg/kg [2] | Relative activity in the luciferase assay relative to MC3 ([3]; luciferase expression in liver 4 hours after tail vein injection, 47.5/10/40.8/1.7 formulation with PEG-DMA) | Liver Luc @ 0.3 mg/kg (ng luc/g liver) [3] [ng luc/g liver] | Liver Luc @ 1.0 mg/kg (ng luc/g liver) [3] [ng luc/g liver]
1 |  | 4.24 | CCCCCCCCC(CCCCCC)C(=O)OCCCCCCCCCC(CCCCCCCCCOC(=O)C(CCCCCC)CCCCCCCC)OC(=O)CCCCNCCCCN(C)CCCCC(=O)OC(CCCCCCCCCOC(=O)C(CCCCCC)CCCCCCCC)CCCCCCCCCOC(=O)C(CCCCCC)CCCCCCCC (stereo not shown) [Compound 5] |  |  |  | 
2 | 5.81 |  | CCCCCCCCC(CCCCCC)COC(=O)CCCCCN(CCCCCC(=O)OCC(CCCCCC)CCCCCCCC)CCCN(C)CCCN(CCCCCC(=O)OCC(CCCCCC)CCCCCCCC)CCCCCC(=O)OCC(CCCCCC)CCCCCCCC (stereo not shown) [Compound 6] |  |  | 92 ± 13 | 169 ± 46
3 | 5.91 |  | CCCCCCC(CCCC)COC(=O)CCCCCN(CCCCCC(=O)OCC(CCCC)CCCCCC)CCCN(C)CCCN(CCCCCC(=O)OCC(CCCC)CCCCCC)CCCCCC(=O)OCC(CCCC)CCCCCC (stereo not shown) [Compound 7] |  |  | 590 ± 98 | 2473 ± 443
4 | 6.53 |  | CCCCCCCCC(CCCCCC)COC(=O)CCCCCC(CCCCCC(=O)OCC(CCCCCC)CCCCCCCC)NCCCOCCOCCOCCCN(CCCCCC(=O)OCC(CCCCCC)CCCCCCCC)CCCCCC(=O)OCC(CCCCCC)CCCCCCCC (stereo not shown) [Compound 8] | 479 ± 163* ng luc/g liver |  |  | 

Second part, the compound before the results:

Row | Compound | pKa [1, 4] | pKa [1] | Liver Luc (ng luc/g liver), dosed at 0.5 mg/kg [2] | Relative activity in the luciferase assay relative to MC3 ([3]; luciferase expression in liver 4 hours after tail vein injection, 47.5/10/40.8/1.7 formulation with PEG-DMA) | Liver Luc @ 0.3 mg/kg (ng luc/g liver) [3] [ng luc/g liver] | Liver Luc @ 1.0 mg/kg (ng luc/g liver) [3] [ng luc/g liver]
5 | CCCCCCCCC(CCCCCC)COC(=O)CCCCCCCN(CCCCCCCC(=O)OCC(CCCCCC)CCCCCCCC)CCCCOCC(O)C(O)COCCCCN(CCCCCCCC(=O)OCC(CCCCCC)CCCCCCCC)CCCCCCCC(=O)OCC(CCCCCC)CCCCCCCC (stereo not shown) [Compound 1] | 6.18 |  | 174 ± 43* ng luc/g liver |  |  | 
6 | CCCCCCCCC(CCCCCC)COC(=O)CCCCCN(CCCCCC(=O)OCC(CCCCCC)CCCCCCCC)CCCOCC(O)C(O)COCCCN(CCCCCC(=O)OCC(CCCCCC)CCCCCCCC)CCCCCC(=O)OCC(CCCCCC)CCCCCCCC (stereo not shown) [Compound 2] |  | 6.14 |  | 4.4 | 1225 ± 159 | 4876 ± 1273
7 | CCCCCCCCC(CCCCCC)COC(=O)CCCCCN(CCCCCC(=O)OCC(CCCCCC)CCCCCCCC)CCCOCCOCCOCCCN(CCCCCC(=O)OCC(CCCCCC)CCCCCCCC)CCCCCC(=O)OCC(CCCCCC)CCCCCCCC (stereo not shown) [Compound 3] | 5.3 |  |  |  | 33 ± 9 | 99 ± 41
8 | CCCCCCCCC(CCCCCC)COC(=O)CCCCCC(CCCCCC(=O)OCC(CCCCCC)CCCCCCCC)NCCCOCCOCCOCCCNC(CCCCCC(=O)OCC(CCCCCC)CCCCCCCC)CCCCCC(=O)OCC(CCCCCC)CCCCCCCC (stereo not shown) [Compound 4] |  | 7.2 |  |  |  | 
